Data on 90 compounds can be found in a melting point compilation (Tetko et al.; mined from patent text by program, amines drawn as free bases though some values may be those of a salt).

Compound `Cc1c(NC(=O)c2ccc(-c3ccc(Cl)cc3)nc2)ccc2cc(CN3CCCC3)cnc12` yielded a melting point of 234 to 236 °C.
The compound `CN(C)c1ncc(-c2cccnc2)cn1` came in with a melting point of 295 °C.
Next, `CCOC(=O)C(C(=O)CCC(C)C)C1c2ccccc2C(=O)N1c1ccc2ccc(F)nc2n1` (stereo not given): 140 °C; `CSc1ccc(C(O)C#CC2(O)CCCC2)cc1` (stereo not given): 118 to 120 °C; `Cc1nc(C)n(-c2cc([C@@H]3C[C@H]3c3nc4ccccc4n3C)nc(C(N)=O)n2)n1` (relative stereo): 119 to 121 °C.
With `COc1cccc(Cc2nnc(NCCSCc3nc[nH]c3C)[nH]c2=O)c1`, the melting point lay in the range of 203 to 204 °C.
`CC(C)(C)C(=O)CC(=O)Nc1cc(OC(=O)c2cc(C(C)(C)C)c(O)c(C(C)(C)C)c2)ccc1Cl` showed a melting point of 145 to 147 °C.
Next, `CCCn1nnn(-c2cc(OC3CCCO3)c(Cl)cc2Cl)c1=O` (stereo not given): 89 to 90 °C; `CC(C)c1ccn2nc(SCc3ccccc3)nc2n1`: 65 to 66 °C; `O=C(O)/C=C/c1cccc(-c2nc3c(=O)n(CC4CCCCC4)c(=O)n(CC4CCCCC4)c3[nH]2)c1`: greater than 350 °C.
In the case of `CCOC(=O)C1=C(c2cccc(Cl)c2Cl)N(C(=O)OCC)C(=O)NC1C` (stereo not given) it was 140 to 141 °C; in that of `Cc1ccc(CC(N)=NO)cc1C`, 59 to 60 °C.
With `OC1(c2cccc(-c3ccccc3)c2)CN2CCC1CC2` (stereo not given), the melting point is 165 to 166 °C.
In the case of `CCOC(=O)c1c(O)c2cscc2[nH]c1=O` it was 193 °C; in that of `OCCCCc1c[nH]c2ccccc12`, 189 to 190 °C.
In the case of `O=c1c2c(c3ccccc3n1-c1ccccc1)OCC2` it was 195 to 197 °C.
In the case of `N#Cc1cc(C(=O)NCc2cccc([N+](=O)[O-])c2)c(OCC(=O)O)cc1F` it was 179 to 180 °C; in that of `CCOC(=O)c1cnc2n(c1=O)CC(C)CC2=NNc1ccccc1` (stereo not given), 165 to 167 °C.
Compound `O=C(OCc1cc(OCCCBr)c(OCCCBr)c(OCCCBr)c1)c1ccccc1` displayed a melting point of 53 to 54 °C.
For the compound `Cc1ccccc1C1=C(CC(=O)Nc2c(C(C)C)cccc2C(C)C)CN(C)c2ccc(Cl)cc21`, the melting point is 160 °C.
Next, `CC(C)(C)OC(=O)N[C@@H]1Cc2ccccc2C[C@H]1O` (relative stereo): 149 to 150 °C; `CCC(=O)c1cn(-c2c(Cl)cc(C(F)(F)F)cc2Cl)nc1C#N`: 143 °C; `CCN1CCCC1CNC(=O)c1cc(NS(C)(=O)=O)c(C)cc1OC` (stereo not given): 132 to 133 °C.
On to `COc1ccc(CC2CCCN(c3nc(C)c(C(=O)NCc4ccccc4)s3)C2=O)cc1` (stereo not given), for which the melting point is 116 to 118 °C.
Consider `O=C(Nc1cccc(F)n1)Nc1cccc2c1C1CCCCN1C2=O` (stereo not given), for which the melting point was determined as 254 °C.
The compound `CCNC(=S)C1=CC(C)(C)Oc2ccc(C#N)cc21` gave a melting point of 151 to 153 °C.
Next, `CSC(=S)NCc1c(Cl)cccc1Cl`: 47 °C; `N#Cc1nn(-c2c(Cl)cc(C(F)(F)F)cc2Cl)cc1OC(F)(F)C(F)Cl` (racemic): 99 to 101 °C.
In the case of `CC(C#N)=C1CCN(c2ccc(N3CC(COc4ccon4)OC3=O)cc2F)CC1` (stereo not given) it was 137 to 138 °C; in that of `COc1cc(Nc2nccc(-c3c[nH]c4ccccc34)n2)cc(OC)c1OC`, 197 °C; in that of `CCC(OC(=O)C1CC1)c1ccc(Cl)c2nc3n(c12)CCCN3c1ncc(Cl)cc1Cl` (stereo not given), 154 to 155 °C.
In the case of `COc1cc(COc2nn(C)cc2CC(=O)O)ccc1OCc1nc(-c2ccccc2)oc1C` it was 153 to 154 °C.
In turn, `O=C(O)c1ccc(-n2ncc3ccccc32)cc1` came in with a melting point of 171 to 172 °C.
For the compound `S=c1n(-c2ccc(Cl)cc2Cl)nc2n1CCCC2`, the melting point was 118 to 120 °C.
For `CC(C)(C)C(=O)C(CS(=O)(=O)c1ccccc1)n1cncn1` (stereo not given), the melting point amounted to 135 °C.
`COc1ccc(NC(=O)c2ccc(C3=NC(C)(C)Cc4cc(OC)c5c(c43)CC(C)(C)O5)cc2)cc1`: the melting point was in the range of 120 to 122 °C.
On to `O=C(c1ccn2c1CSC2c1cccnc1)c1c[nH]c2cc(-c3cccnc3)ccc12` (stereo not given), for which the melting point is 270 to 271 °C.
`Cc1c(OCc2ccc([Si](C)(C)C)cc2)cnn(C(C)(C)C)c1=O`: the melting point was in the range of 93.5 to 95.5 °C.
In the case of `COC(=O)c1ccc(C(=O)C2CCC3=C(N=C(C(C)C)C(C(C)C)N3)C2=O)cc1` (stereo not given) it was 82 to 84 °C.
In the case of `CNc1nc(NC)nc(OC(F)(F)F)n1` it was 68 to 72 °C.
In the case of `N#Cc1cnc2sc(-c3ccccc3C=O)cc2c1Nc1cccc2[nH]ccc12` it was 137 to 139 °C; in that of `COP(=O)(Cc1cc(C)c(C)cc1CP(=O)(OC)OC)OC`, 66 to 69 °C; in that of `COC(=O)C1Oc2ccc([N+](=O)[O-])cc2O1` (stereo not given), 90 to 92 °C.
The compound `COc1ccc2[nH]c(S(=O)Cc3cc(N4CCCCC4)c(Br)cn3)nc2c1` (stereo not given) returned a melting point of 114 to 118 °C.
Next, `CC(C)(CCCCOCCCCC(C)(C)C(=O)O)C(=O)O`: 49 to 51 °C; `COC(=O)[C@H](CSC(=O)[C@@H](C)c1ccc(CC(C)C)cc1)NC(C)=O`: 75 to 77 °C.
Next, `COC(=O)c1sc(Cl)nc1C(F)(F)F`: 32 to 34 °C; `CCN(CC)CC(C)N1c2ccccc2Sc2ccc(C#N)cc21` (stereo not given): 83 °C; `N=C(N)NCCCC(NC(=O)CCS)C(=O)O` (stereo not given): 230 °C.
In the case of `Cc1c(Br)ccc(N)c1C#N` it was 111 to 113 °C.
Consider `CCOC(=O)C(=O)Nc1ccc2ccccc2c1[N+](=O)[O-]`, for which the melting point lay in the range of 139 to 140 °C.
For `O=C(O)[C@@H]1C[C@@H](O)CN1S(=O)(=O)c1ccc2ccccc2c1`, the melting point was 140 °C.
In the case of `C=CCOc1ccc(C)c2c1C(=O)CC2` it was 89 to 92 °C; in that of `Clc1cncc(Cl)c1C1=NC(c2ccc(I)cc2)CO1` (stereo not given), 90 to 92 °C.
Next, `O=C1CCCc2c1ccc(OCc1ccccc1)c2Cl`: 99 to 100 °C; `COc1cc2c(cc1O)CCCN(Cc1cc(OC)c(OC)c(OC)c1)C2`: 46 to 48 °C.
Next, `CSC(=S)NN=Cc1c[nH]c(C)n1`: 274 to 279 °C; `NC(=O)c1ccnc(Oc2cccc(C(F)(F)F)c2)n1`: 113 °C.
Compound `CCc1ccc(C(=O)O)c2ccccc12` came in with a melting point of 125 to 127 °C.
Next, `CCc1ccc2c(=O)c(CO)cn(C)c2c1`: 147 to 148 °C.
In the case of `CCCCCCOC(=O)Oc1ccc2c(N3CCN(CCCC(=O)c4ccc(F)cc4)CC3)noc2c1` it was 77 to 80 °C; in that of `COc1ccc2c(c1)S(=O)(=O)C(C(=O)Nc1cccc(C(F)(F)F)c1)C(=O)N2C` (stereo not given), 165 to 168 °C; in that of `COc1ccc(CCNC(=O)c2ccc(S(=O)(=O)NC(=O)c3ccc(C(=O)NCCO)nc3)cc2)cc1OC`, 201 to 203 °C.
Turning to `COc1ccc(-c2coc(C#N)cc2=O)cc1`, the melting point was in the range of 165 to 167 °C.
In the case of `CCC(=O)N(CC)c1cccc(-c2ccc3nncn3n2)c1` it was 127 to 130 °C; in that of `CC1(C)COC(c2ccc3c(c2)C(=O)c2ccccc2CO3)=N1`, 122 °C.
Turning to `CCCc1c(OCC(O)COc2cc(N)c(C)cc2Cl)ccc(C(C)=O)c1O` (stereo not given), the melting point was in the range of 94 to 95 °C.
Compound `Cc1ccc(C(Br)=NOS(C)(=O)=O)cc1` had a melting point of 82.5 to 91.5 °C.
In turn, `COC(C(=O)O)c1ccsc1` (stereo not given) registered a melting point of 80 to 82 °C.
In turn, `CC(=O)Nc1ccc(SCCCCNS(=O)(=O)c2ccc(C)cc2)cc1` returned a melting point of 104 to 105 °C.
Next, `NS(=O)(=O)c1nnc(NC(=O)CNC(=O)OCc2ccccc2)s1`: 199 to 201 °C.
Compound `Cc1ncc2cc(-c3c(Cl)cccc3Cl)c(NS(C)(=O)=O)nc2n1` had a melting point of 212 to 213 °C.
Next, `Clc1cccc(Nc2ncnc3[nH]nc(NCc4ccc(-c5nccs5)cc4)c23)c1`: 241 to 243 °C; `CC(=O)Oc1ccc(NC(=O)c2ccc(C3OCC(SC(C)C(O)(Cn4cncn4)c4ccc(F)cc4F)CO3)cc2)cc1` (stereo not given): 127 °C; `CN(c1cccc2cc(C3=NCC(CCN4C(=O)CCC4=O)S3)[nH]c12)S(=O)(=O)c1cccs1` (stereo not given): 189 to 191 °C.
`CC(Nc1ccccc1N)=C1C(=O)OC(=O)C(C(=O)C=Cc2ccc(O)cc2)=C1O` returned a melting point of 223 to 225 °C.
Next, `CC(=O)CC(=O)Nc1cccc(OC(C)=O)c1`: 101 °C; `O=C(O)CCCc1ccc(NS(=O)(=O)c2ccc(Cl)cc2)cn1`: 178 to 180 °C.
With `COC(=O)c1cscc1S(=O)(=O)Cl`, the melting point is 71 °C.
The compound `CCC(Oc1ccc(C(C)(C)CC)cc1C(C)(C)CC)C(=O)O` (stereo not given) showed a melting point of 89 °C.
In the case of `CN1C(=O)N(C)C(=O)C2(CC=C3C(CCC4=Cc5c(cnn5-c5ccc(F)cc5)CC43C)O2)C1=O` (stereo not given) it was 188 to 189 °C; in that of `CC(C)c1ccc(CN(C(=N)N)c2ccc3c4c(cccc24)CC3)cc1`, 153 to 155 °C; in that of `O=C(CBr)NCCSC(c1ccccc1)(c1ccccc1)c1ccccc1`, 130 to 135 °C.
In the case of `Cc1oc(-c2ccccc2)nc1COc1cc(CCl)on1` it was 105 to 106 °C; in that of `COP(=O)(OC)C(O)=Cc1cccc(Cl)c1`, 136 to 138 °C; in that of `CC1CNCCN1c1c(F)c(N)c2c(=O)c(C(=O)O)cn(C3CC3)c2c1F` (stereo not given), 224 to 226 °C.
In the case of `CCOC(=O)C=Cc1ccc(OCCCc2ccccc2)c([N+](=O)[O-])c1` it was 67 to 69 °C.
`COC(=O)c1ccc2oc(C(=O)C(Cc3ccccc3)NC(=O)Cn3c(-c4ccc(F)cc4)ncc(N)c3=O)nc2c1` (stereo not given) yielded a melting point of 208 to 213 °C.
Turning to `CN1CCN(c2cc3c(cc2F)c(=O)c(C(=O)O)c2ccccn23)CC1`, the melting point lay in the range of 264 to 266 °C.
Compound `COC(=O)c1cccc(OCCCOc2cc3c(cc2O)CCO3)c1` had a melting point of 93 °C.
